In patent US12180252B2, “Peptide derived from PEP27 peptide and uses thereof” (priority 2021, dated 2024):
Converted amounts (≈) assume the structure as drawn. Where two headings read alike, the source gives them in different places. Where a SMILES comes first, the peptide text is derived from it.

Tests used:
P. aeruginosa 4007 [1] = experiment: microbe, parasite or virus in culture
Outline: (§1)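 Peptide growth inhibition measured by twofold dilution against mid-log bacteria (2×10^4 cells/100 μl), 37° C, 18 hours; endpoint was absence of cell division. Meropenem, ceftazidime, ceftriaxone and vancomycin were run in parallel.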

P. aeruginosa 4891 [2] = experiment: microbe, parasite or virus in culture
Outline: as §1

P. aeruginosa ATCC15692 = experiment: microbe, parasite or virus in culture
Outline: as §1

S. aureus CCARM3089 [3] = experiment: microbe, parasite or virus in culture; details: S. aureus CCARM3089, antibiotics-tolerant; 37° C., 18 hours
Outline: as §1

S. aureus CCARM3090 [4] = experiment: microbe, parasite or virus in culture; details: S. aureus CCARM3090, antibiotics-tolerant; 37° C., 18 hours
Outline: as §1

S. aureus CCARM3518 [5] = experiment: microbe, parasite or virus in culture; details: S. aureus CCARM3518, antibiotics-tolerant; 37° C., 18 hours
Outline: as §1

[6] = test system: Sa. typhimurium CCARM8007; assay type: cell-based, Salmonella typhimurium; details: Sa. typhimurium CCARM8007, antibiotics-tolerant; 37° C., 18 hours
Description: (§2) In order to evaluate the antimicrobial activity of the peptides prepared by the method of above 1, a minimal inhibitory concentration (MIC) value as the minimum concentration of a peptide, in which cells are not divided, was measured.
(§3) Specifically, the strains shown in Table 3 below were purchased, cultured in a medium having a constitutional composition suitable for each strain to a mid-log phase, and then diluted to a concentration of 2×10^4 cells/100 μl to prepare the product on a micro-titration plate (Nunc, USA). Then, PEP27, PEP27-1, PEP27-2 or PEP27-5 peptide synthesized in the above 1 was added to each well by serial dilution ½ times, followed by incubation at 37° C. for 18 hours.

[7] = test system: Sa. typhimurium CCARM8009; assay type: cell-based, Salmonella typhimurium; details: Sa. typhimurium CCARM8009, antibiotics-tolerant; 37° C., 18 hours
Description: as §2, §3

Sa. typhimurium KCTC1926 = assay type: cell-based, Salmonella typhimurium
Description: as §2, §3

HaCaT and MCF-7 cells = experiment: MTT cytotoxicity; assay type: cell-based, human; details: for toxicity relative to the antimicrobial concentration range: mouse erythrocytes and human cells
Description: Specifically, Thiazolyl blue tetrazolium bromide (MTT, Merck KGaA) was used to determine the cytotoxicity of PEP27 and its analogs against HaCaT (human keratinocyte […], n=4 per condition) and MCF-7 (human breast adenocarcinoma, n=3 per condition) cells. The cells were cultured in Dulbecco's modified Eagle's medium (DMEM) supplemented with 10 heat-inactivated fetal bovine serum (FBS, Gibco, Grand Island, NY, USA) and 1% penicillin-streptomycin (Gibco) at a density of 2×10^4 cells/well (96-well plate). Peptides were then added at various concentrations and incubated for 24 h at 37° C., after which MTT (final concentration, 0.5 mg/mL) was added to each well and incubated for 4 h. The formazan product was solubilized in DMSO, and the absorbance at 570 nm was measured to […] cytotoxicity. Cells treated with 0.1% Triton X-100 were used as the 100% cytotoxic control sample.

S. aureus ATCC25923 = assay type: cell-based, Staphylococcus aureus
Description: (§4) Biofilms may form on a wide variety of surfaces, including living or dead surfaces, and biofilm-associated bacteria are more tolerant to antibiotics than planktonic bacterial cells, making them antibiotic-resistant. To assess the efficacy of PEP27-2 against biofilms, we observed the anti-biofilm activity of PEP27-2 in S. aureus (ATCC 25923 and CCARM 3090), E. coli (ATCC 25922 and CCARM 1238), and P. aeruginosa (ATCC 27853 and 4891).
(§5) Specifically, among the strains listed in Table 3 above, Staphylococcus aureus, E. coli and Pseudomonas erujinosa, respectively, were cultured in each medium to a mid-log phase, diluted to a cell concentration of 5×10^4 cells/100 μl, and then, inoculated into a micro-plate (SPL). Then, PEP27-2 peptide was diluted 1/10 times with 10 mM PBS solution (pH 7.2) and 10 μl of the solution was added to each well, followed by incubation at 37° C. for 24 hours. After completely removing the supernatant, the solution was fixed with 100% methanol for 15 minutes, stained with a crystal violet dye solution for 1 hour, washed 3 times, and then dissolved in 95% ethanol, followed by measuring the absorbance at a wavelength of 595 nm using a micro titration plate reader, thereby determining a biofilm minimal inhibitory concentration value for each strain.

S. aureus ATCC29213 = assay type: cell-based, Staphylococcus aureus
Description: as §4, §5

S. aureus CCARM3089 [8] = assay type: cell-based, Staphylococcus aureus; details: 37° C., 24 hours
Description: as §4, §5

S. aureus CCARM3090 [9] = assay type: cell-based, Staphylococcus aureus; details: 37° C., 24 hours
Description: as §4, §5

S. aureus CCARM3518 [10] = assay type: cell-based, Staphylococcus aureus; details: 37° C., 24 hours
Description: as §4, §5

P. aeruginosa 4891 [11] = assay type: cell-based, Pseudomonas aeruginosa
Description: as §4, §5

P. aeruginosa ATCC27853 = assay type: cell-based, Pseudomonas aeruginosa
Description: as §4, §5

E. coli CCARM1229 = assay type: cell-based, Escherichia coli; details: 37° C., 24 hours
P. aeruginosa 4007 [12] = assay type: cell-based, Pseudomonas aeruginosa

CC[C@H](C)[C@H](NC(=O)CN)C(=O)NCC(=O)N[C@@H](C)C(=O)N[C@H](C(=O)N[C@@H](CC(C)C)C(=O)N[C@@H](CCCCN)C(=O)N[C@H](C(=O)N[C@@H](CC(C)C)C(=O)N[C@H](C(=O)N[C@H](C(=O)NCC(=O)N[C@@H](CC(C)C)C(=O)N1CCC[C@H]1C(=O)N[C@@H](C)C(=O)N[C@@H](CC(C)C)C(=O)N[C@H](C(=O)N[C@@H](CO)C(=O)N[C@@H](Cc1c[nH]c2ccccc12)C(=O)N[C@H](C(=O)N[C@@H](CCCCN)C(=O)N[C@@H](CCCNC(=N)N)C(=O)N[C@@H](CCCCN)C(=O)N[C@@H](CCCNC(=N)N)C(=O)N[C@@H](CCC(N)=O)C(=O)N[C@@H](CCC(N)=O)C(N)=O)[C@@H](C)CC)[C@@H](C)CC)[C@@H](C)O)[C@@H](C)O)C(C)C)C(C)C [Melittin, reference compound]
Minimal inhibitory concentration (P. aeruginosa 4007 [1]; P. aeruginosa 4007, antibiotics-tolerant, 37° C., 18 hours): 2 µM (≈ 5.69 µg/mL) | Minimal inhibitory concentration (P. aeruginosa 4891 [2]; P. aeruginosa 4891, antibiotics-tolerant, 37° C., 18 hours): 2 µM (≈ 5.69 µg/mL) | Minimal inhibitory concentration (P. aeruginosa ATCC15692; P. aeruginosa ATCC15692, Gram-negative, 37° C., 18 hours): 2 µM (≈ 5.69 µg/mL) | Minimal inhibitory concentration (S. aureus CCARM3089 [3]): 2 µM (≈ 5.69 µg/mL) | Minimal inhibitory concentration (S. aureus CCARM3090 [4]): 4 µM (≈ 11.4 µg/mL) | Minimal inhibitory concentration (S. aureus CCARM3518 [5]): 2 µM (≈ 5.69 µg/mL) | Minimal inhibitory concentration [6]: 4 µM (≈ 11.4 µg/mL) | Minimal inhibitory concentration [7]: 4 µM (≈ 11.4 µg/mL) | Minimal inhibitory concentration (Sa. typhimurium KCTC1926; Sa. typhimurium KCTC1926, Gram-negative, 37° C., 18 hours): 4 µM (≈ 11.4 µg/mL) | toxicity relative to the antimicrobial concentration range (HaCaT and MCF-7 cells): begins to show toxicity within the range of antibacterial activity | Biofilm minimal inhibitory concentration (S. aureus ATCC25923; S. aureus ATCC25923, 37° C., 24 hours): 4 µM | Biofilm minimal inhibitory concentration (S. aureus ATCC29213; S. aureus ATCC29213, 37° C., 24 hours): 4 µM | Biofilm minimal inhibitory concentration (S. aureus CCARM3089 [8]): 4 µM | Biofilm minimal inhibitory concentration (S. aureus CCARM3090 [9]): 4 µM | Biofilm minimal inhibitory concentration (S. aureus CCARM3518 [10]): 8 µM | Biofilm minimal inhibitory concentration (P. aeruginosa 4891 [11]; P. aeruginosa 4891, 37° C., 24 hours): 8 µM | Biofilm minimal inhibitory concentration (P. aeruginosa ATCC27853; P. aeruginosa ATCC27853, 37° C., 24 hours): 4 µM | Biofilm minimal inhibitory concentration (E. coli CCARM1229): 4 µM | Biofilm minimal inhibitory concentration (P. aeruginosa 4007 [12]; P. aeruginosa 4007, 37° C., 24 hours): 4 µM

CSCC[C@H](N)C(=O)N[C@@H](Cc1c[nH]c2ccccc12)C(=O)N[C@@H](CCCCN)C(=O)N[C@@H](Cc1c[nH]c2ccccc12)C(=O)N[C@@H](Cc1ccccc1)C(=O)N[C@@H](Cc1c[nH]cn1)C(=O)N[C@@H](CC(N)=O)C(=O)N[C@H](C(=O)N[C@@H](CC(C)C)C(=O)N[C@@H](CO)C(=O)N[C@@H](Cc1c[nH]c2ccccc12)C(=O)NCC(=O)N[C@@H](Cc1c[nH]c2ccccc12)C(=O)N[C@@H](CC(C)C)C(=O)N[C@@H](CC(C)C)C(=O)N[C@@H](C)C(=O)N[C@@H](CC(=O)O)C(=O)N[C@@H](CCCCN)C(=O)N[C@@H](CCCNC(=N)N)C(=O)N1CCC[C@H]1C(=O)N[C@@H](C)C(=O)N[C@@H](CCCNC(=N)N)C(=O)N[C@@H](CC(=O)O)C(=O)N[C@@H](Cc1ccc(O)cc1)C(=O)N[C@@H](CC(N)=O)C(=O)N[C@@H](CCCNC(=N)N)C(=O)N[C@@H](CCCCN)C(N)=O)C(C)C [PEP27-2] (H-MWKWFHNVLSWGWLLADKRPARDYNRK-NH2)
Minimal inhibitory concentration (P. aeruginosa 4007 [1]; 4007, 18 h): 4 µM (≈ 13.9 µg/mL) | Minimal inhibitory concentration (P. aeruginosa 4891 [2]; 4891, 18 h): 4 µM (≈ 13.9 µg/mL) | Minimal inhibitory concentration (P. aeruginosa ATCC15692; ATCC15692, 18 h): 4 µM (≈ 13.9 µg/mL) | Minimal inhibitory concentration (S. aureus CCARM3089 [3]): 4 µM (≈ 13.9 µg/mL) | Minimal inhibitory concentration (S. aureus CCARM3090 [4]): 4 µM (≈ 13.9 µg/mL) | Minimal inhibitory concentration (S. aureus CCARM3518 [5]): 4 µM (≈ 13.9 µg/mL) | Minimal inhibitory concentration [6]: 4 µM (≈ 13.9 µg/mL) | Minimal inhibitory concentration [7]: 4 µM (≈ 13.9 µg/mL) | Minimal inhibitory concentration (Sa. typhimurium KCTC1926; KCTC1926, 18 h): 8 µM (≈ 27.8 µg/mL) | cell viability (HaCaT and MCF-7 cells; 100 μM, 24 h, MTT, HaCaT and MCF-7 cells): 19%-23% | toxicity relative to the antimicrobial concentration range (HaCaT and MCF-7 cells): not toxic within the range of antimicrobial activity or 4×MIC concentration | maximum percent biofilm inhibition (S. aureus ATCC25923; ATCC25923): 83.4% | Biofilm minimal inhibitory concentration (S. aureus ATCC25923; ATCC25923, 24 h): 4 µM | Biofilm minimal inhibitory concentration (S. aureus ATCC29213; ATCC29213, 24 h): 4 µM | Biofilm minimal inhibitory concentration (S. aureus CCARM3089 [8]): 4 µM | Biofilm minimal inhibitory concentration (S. aureus CCARM3090 [9]): 4 µM | Biofilm minimal inhibitory concentration (S. aureus CCARM3518 [10]): 4 µM | Biofilm minimal inhibitory concentration (P. aeruginosa 4891 [11]; 4891, 24 h): 8 µM | maximum percent biofilm inhibition (P. aeruginosa ATCC27853; ATCC27853): 81.2% | Biofilm minimal inhibitory concentration (P. aeruginosa ATCC27853; ATCC27853, 24 h): 8 µM | Biofilm minimal inhibitory concentration (E. coli CCARM1229): 8 µM | Biofilm minimal inhibitory concentration (P. aeruginosa 4007 [12]; 4007, 24 h): 8 µM
